Results reported in ChEMBL document CHEMBL1152116, “Novel benzimidazole-4-carboxylic acid derivatives as potent and selective 5-HT3 receptor ligands” (Bioorg Med Chem Lett, 1996).

How the values were obtained:
[1] = target: T1, Serotonin 3 (5-HT3) receptor (Rattus norvegicus, UniProt P35563+Q9JJ16); assay: In vitro displacement of [3H]-LY 278584 from rat cerebral cortex 5-hydroxytryptamine 3 receptor; type: tissue-based
T1 sequence (P35563 whole entry): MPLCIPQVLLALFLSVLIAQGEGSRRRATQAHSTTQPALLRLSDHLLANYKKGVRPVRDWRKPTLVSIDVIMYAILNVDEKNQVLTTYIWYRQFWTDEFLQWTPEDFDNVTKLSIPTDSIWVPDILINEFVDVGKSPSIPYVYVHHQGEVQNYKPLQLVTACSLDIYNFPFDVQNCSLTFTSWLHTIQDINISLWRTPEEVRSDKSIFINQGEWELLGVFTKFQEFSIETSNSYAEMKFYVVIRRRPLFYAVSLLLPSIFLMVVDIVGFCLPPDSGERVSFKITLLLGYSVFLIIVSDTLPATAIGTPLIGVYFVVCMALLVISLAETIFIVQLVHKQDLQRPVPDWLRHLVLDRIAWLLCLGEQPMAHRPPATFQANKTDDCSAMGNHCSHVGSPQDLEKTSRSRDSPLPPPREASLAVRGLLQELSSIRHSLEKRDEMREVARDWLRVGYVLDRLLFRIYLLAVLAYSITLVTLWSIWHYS
T1 sequence (Q9JJ16 whole entry): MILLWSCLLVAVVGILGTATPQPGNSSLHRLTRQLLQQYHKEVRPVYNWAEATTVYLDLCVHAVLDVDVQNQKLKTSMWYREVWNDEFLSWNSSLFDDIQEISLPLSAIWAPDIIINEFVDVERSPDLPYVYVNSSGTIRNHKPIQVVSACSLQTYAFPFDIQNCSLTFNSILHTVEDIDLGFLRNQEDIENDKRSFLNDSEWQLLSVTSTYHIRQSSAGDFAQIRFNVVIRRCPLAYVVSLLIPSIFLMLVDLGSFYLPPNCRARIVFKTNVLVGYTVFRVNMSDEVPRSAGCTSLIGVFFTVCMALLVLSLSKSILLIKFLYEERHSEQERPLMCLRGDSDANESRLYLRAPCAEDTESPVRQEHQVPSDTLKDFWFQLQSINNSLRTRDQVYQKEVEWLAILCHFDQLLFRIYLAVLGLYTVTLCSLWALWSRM

[2] = target: 5-hydroxytryptamine receptor 4 (Rattus norvegicus, UniProt Q62758); assay: Displacement of [3H]GR-113808 from rat striatum 5-hydroxytryptamine 4 receptor
5-hydroxytryptamine receptor 4, sequence (Q62758 whole entry): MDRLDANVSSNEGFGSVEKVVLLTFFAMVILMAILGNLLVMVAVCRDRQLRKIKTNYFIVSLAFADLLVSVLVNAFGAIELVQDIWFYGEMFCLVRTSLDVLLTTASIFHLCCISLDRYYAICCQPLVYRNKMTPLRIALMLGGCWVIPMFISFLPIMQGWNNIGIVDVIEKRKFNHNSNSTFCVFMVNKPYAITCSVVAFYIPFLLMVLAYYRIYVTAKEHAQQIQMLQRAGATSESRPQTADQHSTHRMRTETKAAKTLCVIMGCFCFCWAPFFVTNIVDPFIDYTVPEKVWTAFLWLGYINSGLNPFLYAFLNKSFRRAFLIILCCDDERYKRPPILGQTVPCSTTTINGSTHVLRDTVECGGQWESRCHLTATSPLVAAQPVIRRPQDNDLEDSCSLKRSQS

SMILES | Ki [1] [nM] | Ki [2] [nM]
O=C(NC1CN2CCC1CC2)c1cccc2nc[nH]c12 (stereo not given) | 3.7 | > 1000
CN1CCC(NC(=O)c2cccc3[nH]cnc23)CC1 | 145 | 719
CN1CCC(NC(=O)c2cc(Cl)cc3[nH]cnc23)CC1 | 29.5 | 54
O=C(NC1CN2CCC1CC2)c1cc(Cl)cc2nc[nH]c12 (stereo not given) | 0.29 | 168
CN1C2CCCC1CC(NC(=O)c1cc(Cl)cc3nc[nH]c13)C2 (stereo not given) | 154 | 167
CN1C2CCCC1CC(OC(=O)c1cc(Cl)cc3[nH]cnc13)C2 (stereo not given) | 4.9 | > 1000
CN1C2CCCC1CC(OC(=O)c1cccc3nc[nH]c13)C2 (stereo not given) | 129 | > 10000
CN1CCC(OC(=O)c2cccc3nc[nH]c23)CC1 | > 1000 | > 10000
CN1C2CCCC1CC(NC(=O)c1cccc3[nH]cnc13)C2 (stereo not given) | 6.1 | > 1000
CN1[C@@H]2CC[C@H]1C[C@@H](OC(=O)c1c[nH]c3ccccc13)C2 [TROPISETRON] |  | 63
COc1cc(N)c(Cl)cc1C(=O)NC1CN2CCC1CC2 (stereo not given) [ZACOPRIDE] |  | 158
